Results published in patent US20050261264A1, “Rare-earth ternary complex” (priority 2000, published 2005).

How the values were obtained:
Assay type in all cases: physicochemical
[1] = Number of moles of bound water per mole of complex (TG-DTA); details: for Bound water (number of moles of bound water per mole of complex): Table 1, dried samples for the ternary complexes
Description: The number of moles of bound water per mole of complex was measured using a TG-DTA 2000 from MAC Science.
A 20 g quantity of Eu(PMS)3 was added to 100 mL of isopropanol, then 43 g ([…] the molar amount of the Eu(PMS)3) of triphenylphosphine oxide (hereinafter referred to as TPPO) was added, and the system was refluxed for 3 hours, and then gradually cooled. The resulting white powder was filtered off. The white powder thus obtained was washed with hot n-hexane, and recrystallized with water-methanol to obtain 44 g of Eu(PMS)3(TPPO)8 in the form of white acicular crystals (yield: 85%). The TG-DTA was measured for these crystals, and it was found from the weight reduction at 100° C. that the number of moles of bound water per mole of complex was 2.93. The IR, NMR, UV absorption characteristics, and elemental analysis results for the obtained Eu(PMS)3(TPPO)8(H2O)2.93 are given below.
Eu(PMS)3(TPPO)8(H2O)2.93 obtained by the above synthesis method was dried in vacuo for 3 hours at 140° C. and a reduced pressure of […]. TG-DTA measurement for the resulting white powder was carried out to obtain a weight reduction at 100° C. It was found from the obtained value that the number of moles of bound water per mole of complex was 0.18.

[2] = Miscibility with a polymer matrix, visual evaluation; parameters: key to Miscibility, PMMA: ⊚: dissolves up to 30 wt %; ◯: dissolves up to 5 wt %; Δ: disperses up to 5 wt %, but there is turbidity; X: repelled at the polymer surface
Description: (§1) The miscibility of the rare earth complex with various media was evaluated as follows.
2) Miscibility with a Polymer Matrix
The rare earth complex serving as the sample was added in the concentrations listed with the evaluation criteria below relative to various media, and the miscibility was visually evaluated according to the following criteria. • ⊚: dissolves up to 30 wt % • ◯: dissolves up to 5 wt % • Δ: disperses up to 5 wt %, but there is turbidity • X: repelled at the polymer surface

[3] = Luminescence quantum yield and luminescence intensity in PMMA polymer matrix composition; details: PMMA rod; for Luminescence quantum yield: rare earth ion 0.7 wt %
Description: (§2) The intensity of luminescence and the luminescence quantum yield, the quotient of dividing the number of photons emitted from a sample by the number of photons absorbed into the sample, were measured with an SS-25 from JASCO Corporation.
A 1 mL quantity of refined anhydrous methyl methacrylate (MMA), 0.5 mg of AIBN, and 148 mg (0.7 wt %) as the rare earth ion concentration) of the Eu (PMS)3 (TPPO)8 obtained in Example 1 were mixed, the mixture was transferred to a Pyrex tube, and the inside of the tube was deaerated and then sealed. By reacting for 5 hours at 60° C., the polymerization of MMA was carried out. The resulting PMMA containing Eu(PMS)3 (TPPO)8 was taken out of the Pyrex tube, and a rod-shaped polymer matrix composition was obtained.
(§3) The polymer matrix compositions prepared in Examples 17 to 19 and Comparative Example 11 were measured for luminescence intensity at the respective maximum luminescence wavelengths. The relative luminescence intensity in Examples 17 to 19: (luminescence intensity in each of Examples 17 to 19)/(luminescence intensity in Comparative Example 11) was calculated, letting 1 be the luminescence intensity in Comparative Example 11 (rare earth complex in which the ligand Z was not coordinated).
A rod-shaped polymer matrix composition containing […] was obtained in the same manner as in Example 17, except that 148 mg (rare earth ion concentration: 0.7 wt %) of the Nd(PMS)3 (TPPO)8 obtained in Example 2 was used instead of Eu(PMS)3 (TPPO)8.
as §3, with “20 and 21” for “17 to 19”, “12” for “11”, “20 and 21:” for “17 to 19:”, “20 and 21)/(luminescence” for “17 to 19)/(luminescence”, “12)” for “11)”

[4] = Luminescence quantum yield and luminescence intensity in solution
Description: as §2
The luminescence quantum yield of an acetonitrile solution of the Eu(PMS)3(TPPO)8 obtained in Example 1 (europium ion concentration: 0.05 mol/L) was measured (excitation wavelength: 465 nm, maximum luminescence wavelength: 612 nm, luminescence wavelength used in measurement: 612 nm).
The solutions prepared in Examples 12 to 14 and Comparative Examples 7 to 9 and Comparative Example B were measured for luminescence intensity at the respective maximum luminescence wavelengths.
The relative luminescence intensity of the solutions used in Examples 12 to 14 and Comparative Example B: (luminescence intensity in each of Examples 12 to 14)/(luminescence intensity in Comparative Example 7) was calculated, letting 1 be the luminescence intensity in Comparative Example 7 (solution of a rare earth complex in which the ligand Z was not coordinated).
Similarly, the relative luminescence intensity in Comparative Example 9: (luminescence intensity in Comparative Example 9)/(luminescence intensity in Comparative Example 8) was calculated, letting 1 be the luminescence intensity in Comparative Example 8 (solution of a known β-diketone-type of rare earth complex in which the ligand Z was not coordinated). The relative luminescence intensity of the solution used in Comparative Example B was 1.6 times.
The luminescence quantum yield of an acetone-d6 solution of the Nd(PMS)3(TPPO)8 obtained in Example 2 (neodymium ion concentration: 0.05 mol/L) was measured (excitation wavelength: 585 nm, maximum luminescence wavelength: 1064 nm, luminescence wavelength used in measurement: 1064 nm).
The solutions prepared in Examples 15 and 16 and Comparative Examples 10 were measured for luminescence intensity at the respective maximum luminescence wavelengths. The relative luminescence intensity in Examples 15 and 16: (luminescence intensity in each of Examples 15 and 16)/(luminescence intensity in Comparative Example 10) was calculated, letting 1 be the luminescence intensity in Comparative Example 10 (rare earth complex in which the ligand Z was not coordinated).

[5] = Miscibility with solvents, visual evaluation at 5 wt %; parameters: key: ⊚: dissolves at room temperature; ◯: dissolves when heated for 5 minutes at 40° C.; Δ: dissolves under heating, but cooling precipitates crystals; X: does not dissolve; details: complex added at 5 wt %
Description: as §1
1) Miscibility with Solvents

[6] = Mechanoluminescence of polycarbonate film hit with a metal rod; details: polycarbonate film about 6 μm thick, visual
Description: The rare earth ternary complex of the present invention can be used as a mechanoluminescence material. The term mechanoluminescence as used here refers to a phenomenon whereby physical force (such as pressure, vibration energy or the like) imparted to the rare earth ternary complex is converted into optical energy, causing the complex to emit light.
A 50 mg quantity of the Eu(PMS)3(Phen)m obtained in Example 8 and 450 mg of polycarbonate were dissolved in 3 mL of methylene chloride and then uniformly stirred to obtain a polymer solution. This polymer solution was then cast onto a glass plate, after which it was dried in vacuo overnight to remove the solvent, forming a polycarbonate film containing Eu(PMS)3(Phen)m, which is about 6 μm thick, on the glass plate.
A polycarbonate film containing Eu(PMS)3, which is about 6 μm thick, was formed on a glass plate in the same manner as in Example 22, except that 42 mg of the Eu(PMS)3 prepared in Producing Example 1 was used instead of Eu(PMS)3 (Phen) m.

[7] = after drying in vacuo at 140° C.
[8] = before drying (crystals as obtained), weight reduction at 100° C.
[9] = Eu 0.7 wt %, relative to Eu(PMS)3 (Comparative Example 11) = 1
[10] = acetonitrile solution, Eu 0.05 mol/L, relative to Eu(PMS)3 (Comparative Example 7) = 1
[11] = acetonitrile solution, europium ion 0.05 mol/L, excitation 465 nm, luminescence 612 nm
[12] = Nd 0.7 wt %, relative to Nd(PMS)3 (Comparative Example 12) = 1
[13] = excitation 585 nm, luminescence 1064 nm
[14] = acetone-d6 solution, Nd 0.05 mol/L, relative to Nd(PMS)3 (Comparative Example 10) = 1
[15] = acetone-d6 solution, neodymium ion 0.05 mol/L, excitation 585 nm, luminescence 1064 nm

Row | SMILES | Bound water (number of moles of bound water per mole of complex) [1] | Number of moles of bound water per mole of complex [1, 7] | Number of moles of bound water per mole of complex [1, 8] | Miscibility, Epoxy resin [2] | Miscibility, Nafion [2] | Miscibility, PMMA [2] | Relative luminescence intensity [3, 9] | Relative luminescence intensity [4, 10] | Luminescence quantum yield [4, 11] [%] | Miscibility, Acetone [5] | Miscibility, Chloroform [5] | Miscibility, Toluene [5] | Miscibility, Water [5] | Light emission when film is hit with a metal rod (mechanoluminescence) [6] | Luminescence quantum yield ([3]; excitation 465 nm, luminescence 612 nm) [%] | Relative luminescence intensity [3, 12] | Luminescence quantum yield [3, 13] [%] | Relative luminescence intensity [4, 14] | Luminescence quantum yield [4, 15] [%]
1 | O=S(=O)([N-]S(=O)(=O)C(F)(F)F)C(F)(F)F.O=S(=O)([N-]S(=O)(=O)C(F)(F)F)C(F)(F)F.O=S(=O)([N-]S(=O)(=O)C(F)(F)F)C(F)(F)F.[Eu+3].c1cnc2c(c1)ccc1cccnc12.c1cnc2c(c1)ccc1cccnc12.c1cnc2c(c1)ccc1cccnc12.c1cnc2c(c1)ccc1cccnc12 [Eu(PMS)3(Phen)m] | 0.00 | water had been completely removed | 3.06 | ◯ (dissolves up to 5 wt %) | ◯ (dissolves up to 5 wt %) | ◯ (dissolves up to 5 wt %) | 5566 | 49.5 | 5.1 | ⊚ | Δ | Δ | X | emits red light | – | – | – | – | –
2 | O=S(=O)([N-]S(=O)(=O)C(F)(F)F)C(F)(F)F.O=S(=O)([N-]S(=O)(=O)C(F)(F)F)C(F)(F)F.O=S(=O)([N-]S(=O)(=O)C(F)(F)F)C(F)(F)F.[Eu+3] [Eu(PMS)3, reference compound] | 2.08 | – | – | Δ (disperses up to 5 wt %, but there is turbidity) | Δ (disperses up to 5 wt %, but there is turbidity) | X | 1.0 | 1.0 | 5.0 | ⊚ | X | X | ⊚ | no light emission was noted | 2.5 | – | – | – | –
3 | O=P(c1ccccc1)(c1ccccc1)c1ccccc1.O=P(c1ccccc1)(c1ccccc1)c1ccccc1.O=P(c1ccccc1)(c1ccccc1)c1ccccc1.O=P(c1ccccc1)(c1ccccc1)c1ccccc1.O=P(c1ccccc1)(c1ccccc1)c1ccccc1.O=P(c1ccccc1)(c1ccccc1)c1ccccc1.O=P(c1ccccc1)(c1ccccc1)c1ccccc1.O=P(c1ccccc1)(c1ccccc1)c1ccccc1.O=S(=O)([N-]S(=O)(=O)C(F)(F)F)C(F)(F)F.O=S(=O)([N-]S(=O)(=O)C(F)(F)F)C(F)(F)F.O=S(=O)([N-]S(=O)(=O)C(F)(F)F)C(F)(F)F.[Nd+3] [Nd(PMS)3(TPPO)8] | 0.24 | 0.24 | 3.41 | ◯ (dissolves up to 5 wt %) | ◯ (dissolves up to 5 wt %) | ◯ (dissolves up to 5 wt %) | – | – | – | ⊚ | ⊚ | ◯ | X | – | – | 80 | 0.8 | 1.4 | 1.1
4 | O=S(=O)([N-]S(=O)(=O)C(F)(F)F)C(F)(F)F.O=S(=O)([N-]S(=O)(=O)C(F)(F)F)C(F)(F)F.O=S(=O)([N-]S(=O)(=O)C(F)(F)F)C(F)(F)F.[Nd+3] [Nd(PMS)3, reference compound] | 2.32 | – | – | Δ (disperses up to 5 wt %, but there is turbidity) | Δ (disperses up to 5 wt %, but there is turbidity) | X | – | – | – | ⊚ | X | X | ⊚ | – | – | 1.0 | <0.1 | 1.0 | 0.8
